Assay in all cases: Enzyme binding assay (KINOMEscan)
Holding throughout (conditions): DiscoveRx, pKd = -log Kd (M)

In test [1] the target is FGFR4 (Homo sapiens (Human), UniProt P22455). The method, then:
(§1) Enzyme Binding Assays (KINOMEscan®)
(§2) Kinase enzyme binding affinities of compounds disclosed herein were determined using the KINOMEscan® technology performed by DiscoveRx Corporation, San Diego, Calif., USA (www.kinomescan.com). Table A2 reports the obtained pKd values, with Kd (M) being the inhibitor binding constant value and with pKd being −log Kd: […]

The target of test [2] is FGFR1 (Homo sapiens (Human), UniProt P11362). On the procedure:
as §1, §2

The target in test [3] is VEGFR2 (Homo sapiens (Human), UniProt P35968). The method, then: as §1, §2
Chain of VEGFR2 (P35968 20-1356): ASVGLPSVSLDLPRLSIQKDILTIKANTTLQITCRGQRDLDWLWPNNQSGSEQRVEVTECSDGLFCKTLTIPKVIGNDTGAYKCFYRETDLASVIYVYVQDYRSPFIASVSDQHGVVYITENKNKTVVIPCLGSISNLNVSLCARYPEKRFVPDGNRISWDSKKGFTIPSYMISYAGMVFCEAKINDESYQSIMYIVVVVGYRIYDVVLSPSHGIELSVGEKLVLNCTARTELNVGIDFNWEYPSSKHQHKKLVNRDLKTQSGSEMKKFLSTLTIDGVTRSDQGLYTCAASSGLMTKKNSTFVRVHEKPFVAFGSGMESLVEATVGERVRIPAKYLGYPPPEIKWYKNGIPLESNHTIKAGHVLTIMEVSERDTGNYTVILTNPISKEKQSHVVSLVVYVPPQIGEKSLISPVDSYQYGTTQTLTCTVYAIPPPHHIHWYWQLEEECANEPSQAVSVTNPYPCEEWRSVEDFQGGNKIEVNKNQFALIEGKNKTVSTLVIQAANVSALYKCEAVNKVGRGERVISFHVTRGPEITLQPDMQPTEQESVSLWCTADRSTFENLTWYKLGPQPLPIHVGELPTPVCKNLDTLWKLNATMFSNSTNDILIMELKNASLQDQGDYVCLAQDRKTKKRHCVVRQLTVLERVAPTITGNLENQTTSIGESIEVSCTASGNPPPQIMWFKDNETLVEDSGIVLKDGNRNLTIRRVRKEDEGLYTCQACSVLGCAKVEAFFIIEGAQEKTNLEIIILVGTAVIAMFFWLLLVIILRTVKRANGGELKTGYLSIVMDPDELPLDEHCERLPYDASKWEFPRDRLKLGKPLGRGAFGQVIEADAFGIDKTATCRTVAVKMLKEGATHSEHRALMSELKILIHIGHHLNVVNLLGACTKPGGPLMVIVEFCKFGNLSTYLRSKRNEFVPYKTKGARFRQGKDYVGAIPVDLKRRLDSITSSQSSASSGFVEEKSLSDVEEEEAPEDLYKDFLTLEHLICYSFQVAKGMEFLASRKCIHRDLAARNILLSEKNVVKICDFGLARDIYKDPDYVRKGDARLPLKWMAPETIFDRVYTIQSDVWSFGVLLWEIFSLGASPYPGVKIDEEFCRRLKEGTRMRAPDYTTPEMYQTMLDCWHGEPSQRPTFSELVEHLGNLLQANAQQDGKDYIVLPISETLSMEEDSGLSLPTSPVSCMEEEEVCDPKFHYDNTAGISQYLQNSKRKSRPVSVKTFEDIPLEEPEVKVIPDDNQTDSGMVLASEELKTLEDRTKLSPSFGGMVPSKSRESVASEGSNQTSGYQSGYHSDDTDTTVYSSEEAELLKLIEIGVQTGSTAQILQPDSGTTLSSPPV
Test [4] addresses FGFR2 (Homo sapiens (Human), UniProt P21802). The method, then: as §1, §2
For test [5], the target named is FGFR3 (Homo sapiens (Human), UniProt P22607). On the procedure:
as §1, §2

SMILES strings stand for the structures.

Results on 10 compounds are retold here after US11542247B2, “Bi-heteroaryl substitute 1,4-benzodiazepines and uses thereof for the treatment of cancer” (Janssen Pharmaceutica NV, priority 2015, dated 2023).

The term Kd denotes the constant that tells how readily two partners part at equilibrium. A low value points to higher affinity.

Chain of FGFR3 (P22607 23-806): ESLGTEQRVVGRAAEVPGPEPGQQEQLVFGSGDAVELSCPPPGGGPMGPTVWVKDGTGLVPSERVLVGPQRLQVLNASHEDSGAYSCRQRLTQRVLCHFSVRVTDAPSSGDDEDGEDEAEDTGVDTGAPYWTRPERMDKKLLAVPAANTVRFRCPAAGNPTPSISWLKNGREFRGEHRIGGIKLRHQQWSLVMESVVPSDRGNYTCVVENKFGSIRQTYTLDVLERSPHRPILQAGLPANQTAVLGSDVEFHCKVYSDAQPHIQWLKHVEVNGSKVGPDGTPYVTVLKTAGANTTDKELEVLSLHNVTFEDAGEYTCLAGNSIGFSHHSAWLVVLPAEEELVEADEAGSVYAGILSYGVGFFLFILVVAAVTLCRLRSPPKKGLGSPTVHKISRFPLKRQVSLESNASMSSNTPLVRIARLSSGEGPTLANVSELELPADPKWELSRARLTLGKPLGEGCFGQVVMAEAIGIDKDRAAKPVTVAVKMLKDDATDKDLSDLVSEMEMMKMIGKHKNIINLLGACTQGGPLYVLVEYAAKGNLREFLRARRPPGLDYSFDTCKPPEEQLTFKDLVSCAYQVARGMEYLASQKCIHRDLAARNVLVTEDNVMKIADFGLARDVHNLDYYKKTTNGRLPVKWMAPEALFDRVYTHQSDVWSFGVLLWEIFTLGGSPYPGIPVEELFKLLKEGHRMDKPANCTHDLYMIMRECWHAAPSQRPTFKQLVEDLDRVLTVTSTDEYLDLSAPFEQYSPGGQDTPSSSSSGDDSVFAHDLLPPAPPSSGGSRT
Chain of FGFR2 (P21802 22-821): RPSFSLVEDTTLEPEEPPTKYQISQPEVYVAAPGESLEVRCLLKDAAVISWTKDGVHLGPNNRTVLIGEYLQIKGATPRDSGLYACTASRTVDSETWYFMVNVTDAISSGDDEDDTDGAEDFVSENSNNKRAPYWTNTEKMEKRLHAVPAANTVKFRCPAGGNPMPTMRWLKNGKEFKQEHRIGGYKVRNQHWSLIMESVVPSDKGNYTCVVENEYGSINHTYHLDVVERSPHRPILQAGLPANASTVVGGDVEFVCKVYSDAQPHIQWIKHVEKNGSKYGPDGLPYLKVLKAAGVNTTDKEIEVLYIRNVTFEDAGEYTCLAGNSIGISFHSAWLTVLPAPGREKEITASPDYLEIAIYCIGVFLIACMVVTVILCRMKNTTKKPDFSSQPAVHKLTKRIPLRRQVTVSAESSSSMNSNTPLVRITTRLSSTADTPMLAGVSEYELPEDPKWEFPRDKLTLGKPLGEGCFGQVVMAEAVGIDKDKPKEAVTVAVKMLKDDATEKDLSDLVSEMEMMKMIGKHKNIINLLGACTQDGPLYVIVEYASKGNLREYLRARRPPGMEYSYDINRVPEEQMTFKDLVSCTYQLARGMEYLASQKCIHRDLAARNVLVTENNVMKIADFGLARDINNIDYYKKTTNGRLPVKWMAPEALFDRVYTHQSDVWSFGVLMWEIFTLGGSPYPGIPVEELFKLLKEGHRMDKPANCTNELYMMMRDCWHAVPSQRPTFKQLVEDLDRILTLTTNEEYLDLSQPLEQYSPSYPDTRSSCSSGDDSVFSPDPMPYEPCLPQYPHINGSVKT
Chain of FGFR1 (P11362 22-822): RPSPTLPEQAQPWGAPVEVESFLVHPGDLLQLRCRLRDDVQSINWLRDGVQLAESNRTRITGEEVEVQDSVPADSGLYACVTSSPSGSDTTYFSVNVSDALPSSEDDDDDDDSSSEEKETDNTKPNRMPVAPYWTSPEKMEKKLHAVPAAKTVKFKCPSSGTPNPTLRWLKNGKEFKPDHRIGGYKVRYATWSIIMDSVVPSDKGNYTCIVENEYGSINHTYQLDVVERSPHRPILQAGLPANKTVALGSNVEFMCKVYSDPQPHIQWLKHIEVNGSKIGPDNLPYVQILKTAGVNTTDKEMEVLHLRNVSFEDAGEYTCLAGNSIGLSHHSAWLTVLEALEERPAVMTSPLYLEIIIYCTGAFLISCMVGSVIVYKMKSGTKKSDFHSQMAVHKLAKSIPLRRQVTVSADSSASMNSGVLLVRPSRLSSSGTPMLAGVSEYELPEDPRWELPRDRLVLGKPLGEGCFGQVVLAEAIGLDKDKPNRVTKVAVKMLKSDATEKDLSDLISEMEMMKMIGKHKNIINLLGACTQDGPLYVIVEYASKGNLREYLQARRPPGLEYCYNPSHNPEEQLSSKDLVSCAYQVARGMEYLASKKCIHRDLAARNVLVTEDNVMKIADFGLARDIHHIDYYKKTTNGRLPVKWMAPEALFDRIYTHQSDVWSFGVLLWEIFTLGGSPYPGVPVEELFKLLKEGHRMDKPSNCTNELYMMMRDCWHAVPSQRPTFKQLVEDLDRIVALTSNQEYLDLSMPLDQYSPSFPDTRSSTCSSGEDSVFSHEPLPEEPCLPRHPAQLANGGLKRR
Chain of FGFR4 (P22455 22-802): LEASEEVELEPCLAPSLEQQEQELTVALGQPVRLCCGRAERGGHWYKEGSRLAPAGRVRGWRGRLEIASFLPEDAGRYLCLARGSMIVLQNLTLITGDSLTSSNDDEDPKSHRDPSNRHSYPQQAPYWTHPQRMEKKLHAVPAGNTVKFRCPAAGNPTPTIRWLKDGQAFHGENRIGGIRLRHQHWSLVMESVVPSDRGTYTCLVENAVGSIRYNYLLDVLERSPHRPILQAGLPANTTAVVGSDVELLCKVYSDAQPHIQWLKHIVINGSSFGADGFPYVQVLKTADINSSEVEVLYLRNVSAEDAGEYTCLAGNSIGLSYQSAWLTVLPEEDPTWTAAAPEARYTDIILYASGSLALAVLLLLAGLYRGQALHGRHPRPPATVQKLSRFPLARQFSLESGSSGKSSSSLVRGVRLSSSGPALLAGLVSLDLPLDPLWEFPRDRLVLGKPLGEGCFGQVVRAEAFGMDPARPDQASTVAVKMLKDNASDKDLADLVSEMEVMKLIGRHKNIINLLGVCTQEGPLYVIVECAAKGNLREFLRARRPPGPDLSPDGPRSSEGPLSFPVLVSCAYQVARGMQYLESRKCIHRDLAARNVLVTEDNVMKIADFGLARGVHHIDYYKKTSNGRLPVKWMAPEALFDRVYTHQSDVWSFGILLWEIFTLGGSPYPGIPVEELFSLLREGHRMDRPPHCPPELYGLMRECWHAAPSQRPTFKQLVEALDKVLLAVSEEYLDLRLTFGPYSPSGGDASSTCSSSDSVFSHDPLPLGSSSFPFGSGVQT

For `COc1cc(OC)c2c(c1)N(c1ccc3ncn(-c4cnn(C)c4)c(=O)c3c1)CCN(C(C)C)C2` [Compound 11], the Kd in test [1], in test [2], in test [3], in test [4] and in test [5] was greater than 3.02e-06 M each time.

Take `COc1cc(O)c2c(c1)N(c1ccc3ncc(-c4cnn(C)c4)cc3c1)CCN(C(C)C)C2` [Compound 5]: the Kd in test [1], in test [3] and in test [4] was greater than 3.02e-06 M in each case.

For `COc1cc(OC)c2c(c1)N(c1ccc3ncc(-c4cnn(C)c4)cc3n1)CCN(C(C)C)C2` [Compound 9], the Kd in test [1] was 1.91e-07 M; in test [3], 1.05e-06 M; in test [4] it was 9.33e-07 M.

As to `COc1cc(O)cc2c1CN(C(C)C)CCN2c1ccc2ncc(-c3cnn(C)c3)cc2c1` [Compound 4], the Kd in test [1], in test [2], in test [3], in test [4] and in test [5] was greater than 3.02e-06 M in each case.

Consider `CC(C)N1CCN(c2ccc3ncc(-c4cnn(C)c4)cc3c2)c2cc(O)cc(O)c2C1` [Compound 6], for which the Kd in test [1], in test [2], in test [3], in test [4] and in test [5] was greater than 3.02e-06 M throughout.

Consider `COc1cc(OC)c2c(c1)N(c1ccc3ncc(-c4cnn(C)c4)cc3c1)CCN(C)C2` [Compound 2], for which the Kd in test [1], in test [3] and in test [4] was greater than 3.02e-06 M each time.

For `COc1cc(OC)c2c(c1F)N(c1ccc3ncn(-c4cnn(C)c4)c(=O)c3c1)CCN(C(C)C)C2` [Compound 12], the Kd is greater than 3.02e-06 M in test [1], greater than 3.02e-06 M in test [3] and 1.86e-06 M in test [4].

In the case of `COc1cc(OC)c2c(c1)N(c1ccc3ncc(-c4cnn(C)c4)cc3c1)CCN(C(C)C)C2` [Compound 1], the equilibrium dissociation constant (Kd) in test [1] is 2.45e-06 M; in test [3] it was greater than 3.02e-06 M; in test [4], 1.86e-06 M.

On to `COc1cc(OC)c2c(c1)N(c1ccc3ncc(-c4cn[nH]c4)cc3c1)CCN(C(C)C)C2` [Compound 3], for which the Kd in test [1] was 1.38e-06 M; in test [3], greater than 3.02e-06 M; in test [4] it was 8.91e-07 M.

For `COc1cc(OC)c2c(c1)N(c1ccc3ncc(-c4cnn(C)c4)nc3n1)CCN(C(C)C)C2` [Compound 7], the Kd in test [1] was greater than 3.02e-06 M; in test [2], greater than 3.02e-06 M; in test [3], 2.69e-07 M; in test [4], greater than 1e-06 M; in test [5], greater than 3.02e-06 M.
